Results taken from PMC13576449, “Small-Molecule Activators of PRMT1: Discovery, SAR Analyses, and Proapoptotic Effects in Pancreatic Cancer Cells” (Journal of Medicinal Chemistry, 2026).

Columns and labels:
[1] = test system: FLAG-tagged PRMT1 or His-tagged PRMT1; assay: Radioactive in vitro methyltransferase assay, autoradiography (core histones or GST-GAR); format: biochemical, rat, human; details: 100 μM compound, [14C]-methyl-SAM, vs DMSO-treated control
Excerpt: Given that the effects of the PRMT1 activators had been screened and quantified so far using the F-PRMT assay, we next assessed the efficacy of the selected compounds in stimulating PRMT1-mediated methylation of natural substrates. To this end, we conducted in vitro methyltransferase assays using recombinant PRMT1 and core histones or GST-tagged GAR (glycine-arginine-rich domain of fibrillarin) as substrates of PRMT1. , Addition of the cofactor [^14C]-methyl-SAM allowed for the visualization of radiolabeled methyl group incorporation into the substrate proteins by SDS-PAGE and autoradiography or by liquid scintillation counting. […] It is important to note that PRMT1 methylates both H2A and H4, albeit with variable efficiency. […] As a result, the methylation signals of both histones were considered in the quantification process (Figure A, B).
As negative control (Ctrl (−)), PRMT1 enzymes and [^14C-methyl]-SAM were incubated without substrates. Subsequently, samples were separated by SDS-PAGE, blotted, and analyzed by autoradiography. Substrates (H2A, H4 or GST-GAR) and molecular weights (kDa) of the protein marker are indicated. Black lines designate composite images, assembled from the same blots and exposure times. The methylation signals of the substrates were densitometrically quantified, and expressed relative to the DMSO-treated control, as indicated by the numbers below the autoradiographs. Representative results are depicted, with quantification graphs (below the autoradiographs in A and B) summarizing biological replicates. […] Subsequently, GST-GAR was immobilized on glutathione-beads and PRMT1 activity was measured by quantifying the incorporation of ^14C-methyl groups (in cpm) using liquid scintillation counting. […] Cell viability was quantified using the CellTiter-Glo assay. Viability of compound-treated cells is shown in % relative to the viability of solvent-treated cells, which was set to 100% (mean ± SD, n = 3), and then plotted against the logarithm of the compound concentrations. Concentration-viability curves were fitted by nonlinear regression, with the half-maximal inhibitory concentration (IC50) of the compounds for PANC-1 cell viability and the coefficient of determination (R^2) indicated. […] Subsequently, whole-cell extracts were prepared and analyzed by Western blot using antibodies against ADMA, ACTIN (ACT), and VINCULIN (VINC), of which the latter two stainings served as loading controls. Molecular weights (kDa) of the protein marker are indicated. All the ADMA signals per lane were densitometrically quantified, normalized to the signal of the respective loading control and expressed relative to the DMSO-treated control, as indicated by the numbers below the immunostainings. […]

[2] = test system: PaTu8988T cells; assay: Annexin V/PI flow cytometry apoptosis assay, PaTu8988T; format: cell-based, human; details: for gemcitabine-induced apoptosis, AV/PI flow cytometry, co-treatment: TR-033 5 µM, TR-036 10 µM, ICTR-059 5 µM, after 24 h gemcitabine 1 μM, vs gemcitabine alone
Procedure: 6 Effect of small-molecule modulators on gemcitabine-induced apoptosis and tumor growth of PDAC cells. […] Subsequently, the luminescence-based caspase3/7 assay was performed. The activity of caspase 3/7 in treated cells was normalized to the activity measured in untreated cells (dark gray bar), which was set to 1 (mean SD, n = 6 for PANC-1 and n = 4 for PaTu8988T; *: p ≤ 0.05, **: p ≤ 0.01, ***: p ≤ 0.001, using the student t-test). […] After 24 h, gemcitabine (GEM, 1 μM) was added (+) or not (−) for another incubation of 48 h. Subsequently, the apoptotic cell fraction was quantified in % by flow cytometry using FITC-labeled Annexin V (AV) and propidium iodide (PI) staining (in B: mean ± SD, n = 6 for PANC-1 and n = 5 for PaTu8988T; **: p ≤ 0.01, ***: p ≤ 0.001, ****: p ≤ 0.0001, using the student t-test). […] Viable cells are AV/PI double-negative (AV–/PI–, lower left quadrant, Q4), early apoptotic cells are AV single-positive (AV+/PI– upper left quadrant, Q1), late apoptotic cells are AV/PI double-positive (AV+/PI+, upper right quadrant, Q2), and necrotic cells are PI single-positive (AV–/PI+, lower right quadrant, Q3). The sum of early and late apoptotic cell numbers (Q2+Q3 in %) is indicated in red. D-G: The workflow of the PDAC xenograft experiments in mice is depicted in D. PANC-1 cells (2 × 10^6 cells/mouse) were subcutaneously (s.c.) injected in the right flank of female athymic nude mice. […] Tumor volumes were measured every second day using a digital caliper. […] At the end of the 2 weeks, mice were sacrificed and tumors were dissected (F).
For quantification of apoptosis by Fluorescence Activated Cell Sorting (FACS), PANC-1 and PaTu8988T cells were seeded in 6-well plates (250 × 10^3 cells/well) and cultured in the absence or presence of compounds. After 24 h, gemcitabine was added or not for another 48 h. After harvesting and washing, unfixed cells (0.5–1 × 10^6) were incubated with FITC-labeled Annexin V and/or PI (BD Pharmingen) according to the manufacturer’s instructions. All samples were analyzed using a BD FACSCalibur flow cytometer (BD Bioscience). Data were acquired using the CellQuestPro program and analyzed with the FlowJo (FlowJo LLC) software.
After 24 hours, gemcitabine (GEM, 1 µM) was added (+) or not
(-) for another incubation of 48 hours. Subsequently, the apoptotic cell fraction was assessed by flow cytometry using FITC-labeled Annexin V (AV) and propidium iodide (PI) staining and quantified in % (mean ± SD, n=3-4; ns: not significant, *: p ≤0.05, **: p ≤0.01, ***: p ≤0.001, ****: p ≤0.0001, using the student t-test).

(Z)-2-(2-{[(1,3-Dioxo-2,3-dihydroisoquinolin-4(1H)-ylidene)methyl]amino}phenyl)-N,N-dimethylethan-1-aminium chloride [ICTR-059]
PRMT1 methylation activity toward histones H2A and H4 and GAR, autoradiography [1]: increased | gemcitabine-induced apoptosis, AV/PI flow cytometry, co-treatment ([2]; PaTu8988T, TR-07 10 μM, 48 h): weakly enhanced the gemcitabine-induced apoptosis

CCN(CC)Cc1cccc(N/C=C2\C(=O)NC(=O)c3ccccc32)c1.Cl [TR-036, (Z )-N-(3-{[(1,3-Dioxo-2,3-dihydroisoquinoline-4(1 H )-ylidene)methyl]amino}benzyl)-N -ethylethanaminium chloride]
PRMT1 methylation activity toward histones H2A and H4 and GAR, autoradiography [1]: increased | gemcitabine-induced apoptosis, AV/PI flow cytometry, co-treatment ([2]; PaTu8988T, TR-07 10 μM, 48 h): rather diminished the gemcitabine-triggered cell death

CN(C)Cc1cccc(-c2ccc3[nH]c(=O)c4ccccc4c3c2)c1 [TR-033, 2-{3-[(Dimethylamino)methyl]phenyl}phenanthridin-6(5H)-One]
PRMT1 methylation activity toward histones H2A and H4 and GAR, autoradiography [1]: increased | gemcitabine-induced apoptosis, AV/PI flow cytometry, co-treatment ([2]; PaTu8988T, TR-07 10 μM, 48 h): rather diminished the gemcitabine-triggered cell death

CN(C)Cc1cccc(CN/C=C2\C(=O)NC(=O)c3ccccc32)c1.Cl [TR-07, (Z)-1-[3-({[(1,3-Dioxo-2,3-dihydroisoquinolin-4(1H)-lidene)methyl]amino}methyl)phenyl]-N,N-dimethylmethanaminium chloride]
PRMT1 methylation activity toward histones H2A and H4 and GAR, autoradiography [1]: increased | viability at 10 µM ([2]; Homo sapiens, PaTu 8988t, 48 h, read-out: Q4, viable cells (AV–/PI–)): 95.8% | apoptosis, AV/PI flow cytometry, single agent ([2]; PaTu8988T, TR-07 10 μM): did not significantly induce apoptosis | gemcitabine-induced apoptosis, AV/PI flow cytometry, co-treatment ([2]; PaTu8988T, TR-07 10 μM, 48 h): significant increase in the early and late apoptotic stages
